According to patent US9371265B2, “Compositions and methods related to inhibitors of JAK kinase” (EP PHARMA, INC., priority 2012, dated 2016):

Assays:
[1] = system: STAT3; assay: Phospho-STAT3 in SU-DHL-1 cells (Luminex multiplex); type: cell-based, human; conditions: 0-40 μM, 12 hours
Text: FIGS. 6A-6B. EP009 treatment disrupts constitutive JAK3/STAT3 pathway activation and down-regulates CD30 cell surface expression in human ALCL cells. (A) Kit225 (lane a), SUP-M2 (lane b), Karpas299 (lane c), DEL (lane d) and SU-DHL-1 (lane e) total cell lysates were separated by 7.5% SDS-PAGE (upper panel) or were immunoprecipitated (IP) with JAK3 antibodies (lower panel) and separated on 7.5% SDS-PAGE, and then subjected to Western blot (WB) analysis with the indicated antibodies. (B) SU-DHL-1 cells were treated with vehicle (PBS; lane a) or increasing amounts of EP009 (0-40 μM; lanes b-e) for 12 hours. Cells were then lysed, clarified, and immunoprecipitated (IP) with anti-JAK3 (α-JAK3), and subjected to Western blot (WB) analysis with anti-phosphotyrosine (α-pY). Blots were stripped and reprobed with α-JAK3 to verify equivalent protein loading. (C) SU-DHL-1 cells were treated with vehicle (PBS) or increasing amounts of EP009 (0-40 μM) for 12 hours. […] Values represent pSTAT mean fluorescence intensity (MFI) normalized to corresponding GAPDH MFI, while error bars represent the standard deviation (n=2). Statistical significance was determined using Student's t-test. […] Cells were then analyzed by flow cytometry for CD30 expression. […]

[2] = target: CDK3 (Homo sapiens, UniProt Q00526); assay: Kinase panel: CDK3; type: biochemical; conditions: 10 μM EP009
Sequence of CDK3 (Q00526 whole entry): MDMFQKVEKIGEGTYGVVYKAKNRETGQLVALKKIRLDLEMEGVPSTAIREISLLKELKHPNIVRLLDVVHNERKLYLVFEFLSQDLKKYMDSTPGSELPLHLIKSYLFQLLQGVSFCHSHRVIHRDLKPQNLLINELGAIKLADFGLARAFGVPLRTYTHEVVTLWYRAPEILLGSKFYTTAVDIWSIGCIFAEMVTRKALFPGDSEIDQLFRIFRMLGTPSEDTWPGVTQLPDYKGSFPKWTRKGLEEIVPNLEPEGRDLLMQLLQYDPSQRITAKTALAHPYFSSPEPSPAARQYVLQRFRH
Experimental: (§1) Achieving JAK3 selectivity remains a significant challenge in the development of new small molecules for the treatment of cancer and immune-derived diseases. As such, the inventors employed cell-based screening assays of small-molecule libraries based upon the chemical scaffold of the established JAK3 inhibitor NC1153 (Stepkowski et al., J Immunol. (2005), 175(7):4236-4246) EP009 (FIG. 2A) was selected as a lead compound due to improved intrinsic stability (>95% purity in various solvents at 37° C. for 24 hours; FIG. 3) and high-degree of JAK3 selectivity. To test JAK3 versus JAK2 specificity of EP009, the IL-2/JAK3-dependent Kit225, and IL-3/JAK2-dependent BaF/3 cell lines were used. Kit225 and BaF/3 cells growing in the presence of IL-2 or IL-3, respectively, were treated with ascending concentrations of EP009 for 12 hours and cellular JAK3 and JAK2 tyrosine phosphorylation levels detected by Western blot analysis (FIGS. 2B and 2C). Following densitometric analysis, EP009 was determined to dose-dependently reduce IL-2-mediated JAK3 tyrosine phosphorylation with a cellular 50% inhibitory concentration (IC50) between 10 and 20 μM (FIG. 2B). […] To globally evaluate specificity, the inhibitory activity of EP009 was measured against a panel of protein kinases distributed throughout the kinome using the scanEDGE profiling service (KINOMEscan). […]

[3] = target: CSNK1G2 (Homo sapiens, UniProt P78368); assay: Kinase panel: CSNK1G2; type: biochemical; conditions: 10 μM EP009
Sequence of CSNK1G2 (P78368 whole entry): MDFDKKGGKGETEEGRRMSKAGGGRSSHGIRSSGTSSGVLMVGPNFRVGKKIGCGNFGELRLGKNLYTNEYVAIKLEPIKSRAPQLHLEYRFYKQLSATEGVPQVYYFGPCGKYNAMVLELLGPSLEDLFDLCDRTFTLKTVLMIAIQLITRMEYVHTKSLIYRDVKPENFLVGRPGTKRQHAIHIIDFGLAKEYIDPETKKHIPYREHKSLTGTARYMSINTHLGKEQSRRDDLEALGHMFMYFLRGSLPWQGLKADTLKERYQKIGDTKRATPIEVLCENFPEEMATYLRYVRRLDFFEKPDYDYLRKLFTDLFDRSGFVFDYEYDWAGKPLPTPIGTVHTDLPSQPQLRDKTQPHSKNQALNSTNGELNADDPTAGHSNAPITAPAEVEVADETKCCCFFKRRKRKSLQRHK
Experimental: as §1

[4] = target: JNK3 (Homo sapiens, UniProt P53779); assay: Kinase panel: JNK3; type: biochemical; conditions: 10 μM EP009
Sequence of JNK3 (P53779 whole entry): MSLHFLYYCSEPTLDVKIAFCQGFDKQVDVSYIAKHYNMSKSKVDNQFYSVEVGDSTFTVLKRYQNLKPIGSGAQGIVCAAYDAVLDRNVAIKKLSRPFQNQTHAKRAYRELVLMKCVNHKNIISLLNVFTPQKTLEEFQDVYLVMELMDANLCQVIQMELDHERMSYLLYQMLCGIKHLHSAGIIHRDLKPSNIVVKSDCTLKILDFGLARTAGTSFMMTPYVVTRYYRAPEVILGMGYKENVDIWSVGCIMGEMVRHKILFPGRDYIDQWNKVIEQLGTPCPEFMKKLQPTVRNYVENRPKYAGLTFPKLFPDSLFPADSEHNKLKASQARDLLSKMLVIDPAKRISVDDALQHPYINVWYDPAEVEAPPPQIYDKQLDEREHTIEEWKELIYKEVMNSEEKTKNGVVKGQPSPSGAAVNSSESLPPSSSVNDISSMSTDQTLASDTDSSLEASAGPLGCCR
Experimental: as §1

[5] = target: LKB1 (Homo sapiens, UniProt Q15831); assay: Kinase panel: LKB1; type: biochemical; conditions: 10 μM EP009
Sequence of LKB1 (Q15831 whole entry): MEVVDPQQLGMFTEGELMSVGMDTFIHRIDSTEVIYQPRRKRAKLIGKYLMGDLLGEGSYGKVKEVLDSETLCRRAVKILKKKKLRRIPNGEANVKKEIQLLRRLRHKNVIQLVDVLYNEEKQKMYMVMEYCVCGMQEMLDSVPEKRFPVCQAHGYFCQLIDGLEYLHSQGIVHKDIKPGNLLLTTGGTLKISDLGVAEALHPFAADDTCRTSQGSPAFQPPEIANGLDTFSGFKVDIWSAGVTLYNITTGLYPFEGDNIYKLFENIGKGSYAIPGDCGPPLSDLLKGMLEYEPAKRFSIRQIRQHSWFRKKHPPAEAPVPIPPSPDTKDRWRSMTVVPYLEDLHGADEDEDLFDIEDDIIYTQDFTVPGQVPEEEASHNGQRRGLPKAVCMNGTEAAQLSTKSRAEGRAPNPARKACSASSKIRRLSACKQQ
Experimental: as §1

[6] = target: PIK3CG (Homo sapiens, UniProt P48736); assay: Kinase panel: PIK3CG; type: biochemical; conditions: 10 μM EP009
Sequence of PIK3CG (P48736 whole entry): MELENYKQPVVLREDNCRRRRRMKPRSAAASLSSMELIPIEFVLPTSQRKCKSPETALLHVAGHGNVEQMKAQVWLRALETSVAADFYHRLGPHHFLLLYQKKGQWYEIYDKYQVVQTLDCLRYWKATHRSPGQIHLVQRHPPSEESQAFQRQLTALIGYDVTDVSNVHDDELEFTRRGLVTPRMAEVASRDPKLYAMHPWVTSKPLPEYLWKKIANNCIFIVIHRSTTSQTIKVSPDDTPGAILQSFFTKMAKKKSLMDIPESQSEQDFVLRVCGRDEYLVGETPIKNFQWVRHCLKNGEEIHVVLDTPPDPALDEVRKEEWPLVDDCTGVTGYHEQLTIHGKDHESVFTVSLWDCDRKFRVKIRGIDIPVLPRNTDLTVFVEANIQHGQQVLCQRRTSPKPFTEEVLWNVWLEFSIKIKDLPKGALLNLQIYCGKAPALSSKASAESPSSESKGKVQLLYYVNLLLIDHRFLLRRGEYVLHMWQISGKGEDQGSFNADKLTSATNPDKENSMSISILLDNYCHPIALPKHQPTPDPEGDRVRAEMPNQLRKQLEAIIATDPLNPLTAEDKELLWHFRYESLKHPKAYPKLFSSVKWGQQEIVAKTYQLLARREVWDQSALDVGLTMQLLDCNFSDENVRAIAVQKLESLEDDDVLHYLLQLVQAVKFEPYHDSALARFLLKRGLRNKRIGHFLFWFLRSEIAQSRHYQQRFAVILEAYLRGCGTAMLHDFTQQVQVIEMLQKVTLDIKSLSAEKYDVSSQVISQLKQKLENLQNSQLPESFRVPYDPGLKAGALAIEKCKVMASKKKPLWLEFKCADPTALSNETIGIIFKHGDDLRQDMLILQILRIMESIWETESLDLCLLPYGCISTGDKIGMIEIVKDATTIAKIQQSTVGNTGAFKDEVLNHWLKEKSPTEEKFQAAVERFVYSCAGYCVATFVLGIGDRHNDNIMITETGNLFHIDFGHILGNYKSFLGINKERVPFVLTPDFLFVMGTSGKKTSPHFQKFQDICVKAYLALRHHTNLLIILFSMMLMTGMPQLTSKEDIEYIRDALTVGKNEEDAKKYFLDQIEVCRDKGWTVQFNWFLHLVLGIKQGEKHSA
Experimental: as §1

[7] = target: PRKCE (Homo sapiens, UniProt Q02156); assay: Kinase panel: PRKCE; type: biochemical; conditions: 10 μM EP009
Sequence of PRKCE (Q02156 whole entry): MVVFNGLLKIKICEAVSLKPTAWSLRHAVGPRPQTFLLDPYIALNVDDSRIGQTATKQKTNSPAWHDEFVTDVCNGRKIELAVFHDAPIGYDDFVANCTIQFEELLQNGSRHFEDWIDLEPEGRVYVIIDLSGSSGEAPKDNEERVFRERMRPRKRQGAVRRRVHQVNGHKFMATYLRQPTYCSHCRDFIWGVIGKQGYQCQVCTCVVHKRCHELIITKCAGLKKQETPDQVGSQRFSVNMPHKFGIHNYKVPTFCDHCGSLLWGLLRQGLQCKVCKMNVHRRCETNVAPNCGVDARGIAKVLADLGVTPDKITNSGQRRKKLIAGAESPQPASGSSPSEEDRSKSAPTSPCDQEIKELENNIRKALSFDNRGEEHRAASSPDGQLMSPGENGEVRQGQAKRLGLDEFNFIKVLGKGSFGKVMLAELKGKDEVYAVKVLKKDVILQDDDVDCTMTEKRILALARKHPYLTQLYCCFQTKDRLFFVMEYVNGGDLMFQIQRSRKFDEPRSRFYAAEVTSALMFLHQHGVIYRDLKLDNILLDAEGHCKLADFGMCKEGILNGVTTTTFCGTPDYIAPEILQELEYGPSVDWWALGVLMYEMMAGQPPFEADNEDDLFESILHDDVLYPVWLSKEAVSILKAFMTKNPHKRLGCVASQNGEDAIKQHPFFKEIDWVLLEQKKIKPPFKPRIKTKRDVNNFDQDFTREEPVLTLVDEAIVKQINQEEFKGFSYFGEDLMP
Experimental: as §1

With `C=C1CCCCCCCCCC(CO)C1=O` (stereo not shown) [EP009, 2-(Hydroxymethyl)-12-methylenecyclododecanone] the “effect on phospho-STAT3 levels” value [1] was “dose-dependent inhibition”, the “Kinase Activity (% of Control)” value [2] was 100 % of Control and the “Kinase Activity (% of Control)” value [3] was 100 % of Control. For the same molecule, the “Kinase Activity (% of Control)” value [4] was 100 % of Control, the “Kinase Activity (% of Control)” value [5] was 100 % of Control and the “Kinase Activity (% of Control)” value [6] was 75 % of Control. The “Kinase Activity (% of Control)” value [7] was 100 % of Control.
